Results: patent publication US20210395239A1 (Hoffmann-La Roche Inc., priority 2018, published 2021)

Molecular target: T1, human TLR8 (Homo sapiens, UniProt Q9NR97)
T1 construct: host or cells: HEK293 (HEK-Blue hTLR8)
T1 sequence (Q9NR97 27-1041): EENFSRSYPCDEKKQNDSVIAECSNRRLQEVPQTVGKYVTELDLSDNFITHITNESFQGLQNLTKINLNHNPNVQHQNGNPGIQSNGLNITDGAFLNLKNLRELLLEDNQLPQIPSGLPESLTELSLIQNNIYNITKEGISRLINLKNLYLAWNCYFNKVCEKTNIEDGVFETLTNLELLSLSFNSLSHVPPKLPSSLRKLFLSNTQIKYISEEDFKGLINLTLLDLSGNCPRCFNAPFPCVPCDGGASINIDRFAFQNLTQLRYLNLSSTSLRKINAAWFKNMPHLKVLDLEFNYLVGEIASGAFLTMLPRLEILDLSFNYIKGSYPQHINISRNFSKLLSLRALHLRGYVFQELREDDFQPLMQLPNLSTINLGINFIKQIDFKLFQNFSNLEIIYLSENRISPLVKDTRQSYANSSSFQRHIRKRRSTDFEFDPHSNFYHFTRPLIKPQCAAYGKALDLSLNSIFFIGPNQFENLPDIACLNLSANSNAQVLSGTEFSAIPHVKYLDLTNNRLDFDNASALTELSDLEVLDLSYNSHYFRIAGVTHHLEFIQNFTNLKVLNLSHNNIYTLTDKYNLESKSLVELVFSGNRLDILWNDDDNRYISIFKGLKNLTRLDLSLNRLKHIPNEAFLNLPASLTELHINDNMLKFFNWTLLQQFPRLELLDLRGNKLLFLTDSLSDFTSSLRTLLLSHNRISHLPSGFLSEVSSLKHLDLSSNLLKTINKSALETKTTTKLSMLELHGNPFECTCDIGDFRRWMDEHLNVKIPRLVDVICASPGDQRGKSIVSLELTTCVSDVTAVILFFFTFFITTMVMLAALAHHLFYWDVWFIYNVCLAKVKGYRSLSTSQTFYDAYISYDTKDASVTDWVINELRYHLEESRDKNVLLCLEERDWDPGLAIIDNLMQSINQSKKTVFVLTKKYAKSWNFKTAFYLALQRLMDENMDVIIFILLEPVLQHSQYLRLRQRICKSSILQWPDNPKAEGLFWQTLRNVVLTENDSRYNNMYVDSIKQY
Test: HEK293-Blue-hTLR-8 cells assay (SEAP reporter, R848 stimulation)
Assay type: cell-based
Conditions: HEK293-Blue-hTLR8 cells, R848, 20 hrs; read-out: HEK/hTLR8 IC50
From the text: HEK293-Blue-hTLR-8 Cells Assay:
A stable HEK293-Blue-hTLR-8 cell line was purchased from InvivoGen (Cat. #: hkb-ht1r8, San Diego, Calif., USA). These cells were originally designed for studying the stimulation of human TLR8 by monitoring the activation of NF-κB. A SEAP (secreted embryonic alkaline phosphatase) reporter gene was placed under the control of the IFN-β minimal promoter fused to five NF-κB and AP-1-binding sites. The SEAP was induced by activating NF-κB and AP-1 via stimulating HEK-Blue hTLR8 cells with TLR8 ligands. Therefore the reporter expression was declined by TLR8 antagonist under the stimulation of a ligand, such as R848, for incubation of 20 hrs. The cell culture supernatant SEAP reporter activity was determined using QUANTI-Blue™ kit (Cat. #: rep-qb1, Invivogen, San Diego, Ca, USA) at a wavelength of 640 nm, a detection medium that turns purple or blue in the presence of alkaline phosphatase.
HEK293-Blue-hTLR8 cells were incubated at a density of 250,000˜450,000 cells/mL in a volume of 170 μL in a 96-well plate in Dulbecco's Modified Eagle's medium (DMEM) containing 4.5 g/L glucose, 50 U/mL penicillin, […], […], 2 mM L-glutamine, 10% (v/v) heat-inactivated fetal bovine serum with addition of 20 μL test compound in a serial dilution in the presence of final DMSO at 1% and 10 μL of 60 uM R848 in above DMEM, perform incubation under 37° C. in a CO2 incubator for 20 hrs. Then 20 μL of the supernatant from each well was incubated with 180 μL Quanti-blue substrate solution at 37° C. for 2 hrs and the absorbance was read at 620˜655 nm using a spectrophotometer. The signaling pathway that TLR8 activation leads to downstream NF-κB activation has been widely accepted, and therefore similar reporter assay was modified for evaluating TLR8 antagonist.

| IC50 | Compound |
| --- | --- |
| 8 nM | Cc1ccc(N2C[C@H](CN3CCN(c4ccnc(N5CC(N)C5)n4)CC3)O[C@H](C)C2)c2nccnc12 [Example 130, 1-[4-[4-[[(2S,6R)-6-methyl-4-(8-methylquinoxalin-5-yl)morpholin-2-yl]methyl]piperazin-1-yl]pyrimidin-2-yl]azetidin-3-amine] |
| 7 nM | Cc1ccc(N2C[C@H](CN3CCN(c4ccnc(N5C[C@H]6NCCO[C@@H]6C5)n4)CC3)O[C@H](C)C2)c2nccnc12 [Example 129, (4aR,7aR)-6-[4-[4-[[(2S,6R)-6-methyl-4-(8-methylquinoxalin-5-yl)morpholin-2-yl]methyl]piperazin-1-yl]pyrimidin-2-yl]-3,4,4a,5,7,7a-hexahydro-2H-pyrrolo[3,4-b][1,4]oxazine] |
| 4 nM | [2H]c1ccc2c(N3C[C@H](CN4CCN(c5nc(OC)cc(N6CC(C)(N)C6)n5)CC4)O[C@H](C)C3)ccc(C#N)c2n1 [Example 131, 5-[(2S,6R)-2-[[4-[4-(3-amino-3-methyl-azetidin-1-yl)-6-methoxy-pyrimidin-2-yl]piperazin-1-yl]methyl]-6-methyl-morpholin-4-yl]-2-deuterio-quinoline-8-carbonitrile] |
| 40 nM | C[C@@H]1CN(c2ccc(C#N)c3ncccc23)C[C@H](CN2CCC(c3cccc(N4CCNCC4)c3)C2)O1 (stereo partly drawn) [Example 1, 5-[(2R,6S)-2-methyl-6-[[3-(3-piperazin-1-ylphenyl)pyrrolidin-1-yl]methyl]morpholin-4-yl]quinoline-8-carbonitrile] |
| 37 nM | C[C@@H]1CN(c2ccc(C#N)n3ncc(F)c23)C[C@H](CN2CC(c3ccc(N4CC(C)(N)C4)nc3)C2)O1 [Example 158, 4-[(2S,6R)-2-[[3-[6-(3-amino-3-methyl-azetidin-1-yl)-3-pyridyl]azetidin-1-yl]methyl]-6-methyl-morpholin-4-yl]-3-fluoro-pyrazolo[1,5-a]pyridine-7-carbonitrile] |
| 1 nM | [2H]c1ccc2c(N3C[C@H](CN4CCN(c5nc(C)cc(N6C[C@@H](N)[C@H](OC)C6)n5)CC4)O[C@H](C)C3)ccc(C#N)c2n1 [Example 144, 5-[(2S,6R)-2-[[4-[4-[(3R,4R)-3-amino-4-methoxy-pyrrolidin-1-yl]-6-methyl-pyrimidin-2-yl]piperazin-1-yl]methyl]-6-methyl-morpholin-4-yl]-2-deuterio-quinoline-8-carbonitrile] |
| 9 nM | C[C@@H]1CN(c2ccc(C#N)c3ncccc23)C[C@H](CN2CC(c3ccc(N4CCNCC4)cc3)C2)O1 [Example 3, 5-[(2R,6S)-2-methyl-6-[[3-(4-piperazin-1-ylphenyl)azetidin-1-yl]methyl]morpholin-4-yl]quinoline-8-carbonitrile] |
| 8 nM | COc1cc(N2CCN(C[C@H]3CN(c4ccc(C#N)c5ncccc45)C[C@@H](C)O3)CC2)nc(N2CCNCC2)n1 [Example 91, 5-[(2S,6R)-2-[[4-(6-methoxy-2-piperazin-1-yl-pyrimidin-4-yl)piperazin-1-yl]methyl]-6-methyl-morpholin-4-yl]quinoline-8-carbonitrile] |
| 1 nM | C[C@@H]1CN(c2ccc(C#N)c3ncccc23)C[C@H](CN2CCN(c3ccnc(N4C[C@H]5NCCO[C@@H]5C4)n3)CC2)O1 [Example 103, 5-[(2S,6R)-2-[[4-[2-[(4aR,7aR)-3,4,4a,5,7,7a-hexahydro-2H-pyrrolo[3,4-b][1,4]oxazin-6-yl]pyrimidin-4-yl]piperazin-1-yl]methyl]-6-methyl-morpholin-4-yl]quinoline-8-carbonitrile] |
| 33 nM | C[C@@H]1CN(c2ccc(C#N)c3ncccc23)C[C@H](CN2CCN(c3ccc(CN)cc3)CC2)O1 [Example 5, 5-[(2S,6R)-2-[[4-[4-(aminomethyl)phenyl]piperazin-1-yl]methyl]-6-methyl-morpholin-4-yl]quinoline-8-carbonitrile] |
| 9 nM | [2H]c1ccc2c(N3C[C@H](CN4CC(c5ccc(N6CC(C)(N)C6)cc5)C4)O[C@H](C)C3)ccc(C#N)c2n1 [Example 141, 5-[(2S,6R)-2-[[3-[4-(3-amino-3-methyl-azetidin-1-yl)phenyl]azetidin-1-yl]methyl]-6-methyl-morpholin-4-yl]-2-deuterio-quinoline-8-carbonitrile] |
| 92 nM | C[C@@H]1CN(c2ccc(C#N)n3ncc(F)c23)C[C@H](CN2CC(c3ccc(N4C[C@@H]5C[C@H]4CN5)nc3)C2)O1 [Example 165, 4-[(2S,6R)-2-[[3-[6-[(1S,4S)-2,5-diazabicyclo[2.2.1]heptan-2-yl]-3-pyridyl]azetidin-1-yl]methyl]-6-methyl-morpholin-4-yl]-3-fluoro-pyrazolo[1,5-a]pyridine-7-carbonitrile] |
| 1 nM | CO[C@@H]1CN(c2cc(C)nc(N3CCN(C[C@H]4CN(c5ccc(C#N)c6nccnc56)C[C@@H](C)O4)CC3)n2)C[C@@H]1N [Example 120, 8-[(2S,6R)-2-[[4-[4-[(3S,4R)-3-amino-4-methoxy-pyrrolidin-1-yl]-6-methyl-pyrimidin-2-yl]piperazin-1-yl]methyl]-6-methyl-morpholin-4-yl]quinoxaline-5-carbonitrile] |
| 68 nM | C[C@@H]1CN(c2ccc(C#N)n3ncc(F)c23)C[C@H](CN2CC(c3ccc(N4CC(C)(N)C4)cc3)C2)O1 [Example 160, 4-[(2S,6R)-2-[[3-[4-(3-amino-3-methyl-azetidin-1-yl)phenyl]azetidin-1-yl]methyl]-6-methyl-morpholin-4-yl]-3-fluoro-pyrazolo[1,5-a]pyridine-7-carbonitrile] |
| 8 nM | [2H]c1ccc2c(N3C[C@H](CN4CCN(c5cccc(N6CC(C)(N)C6)n5)CC4)O[C@H](C)C3)ccc(C#N)c2n1 [Example 155, 5-[(2S,6R)-2-[[4-[6-(3-amino-3-methyl-azetidin-1-yl)-2-pyridyl]piperazin-1-yl]methyl]-6-methyl-morpholin-4-yl]-2-deuterio-quinoline-8-carbonitrile] |
| 3 nM | C[C@@H]1CN(c2ccc(C#N)c3ncccc23)C[C@H](CN2CCN(c3ccnc(N4C[C@@H](F)[C@@H](N)C4)n3)CC2)O1 [Example 95, 5-[(2S,6R)-2-[[4-[2-[(3S,4R)-3-amino-4-fluoro-pyrrolidin-1-yl]pyrimidin-4-yl]piperazin-1-yl]methyl]-6-methyl-morpholin-4-yl]quinoline-8-carbonitrile] |
| 1 nM | CO[C@H]1CN(c2cc(C)nc(N3CCN(C[C@H]4CN(c5ccc(C#N)c6nccnc56)C[C@@H](C)O4)CC3)n2)C[C@@H]1N [Example 104, 8-[(2S,6R)-2-[[4-[4-[(3S,4S)-3-amino-4-methoxy-pyrrolidin-1-yl]-6-methyl-pyrimidin-2-yl]piperazin-1-yl]methyl]-6-methyl-morpholin-4-yl]quinoxaline-5-carbonitrile] |
| 1 nM | CO[C@H]1CN(c2ccnc(N3CCN(C[C@H]4CN(c5ccc(C#N)c6ncccc56)C[C@@H](C)O4)CC3)n2)C[C@@H]1N [Example 97, 5-[(2S,6R)-2-[[4-[4-[(3S,4S)-3-amino-4-methoxy-pyrrolidin-1-yl]pyrimidin-2-yl]piperazin-1-yl]methyl]-6-methyl-morpholin-4-yl]quinoline-8-carbonitrile] |
| 26 nM | C[C@@H]1CN(c2ccc(C#N)c3ncccc23)C[C@H](CN2CCC(c3cccc(C4CCNCC4)c3)CC2)O1 [Example 2, 5-[(2R,6S)-2-methyl-6-[[4-[3-(4-piperidyl)phenyl]-1-piperidyl]methyl]morpholin-4-yl]quinoline-8-carbonitrile] |
